Source: patent US9604982B2, “P2X7 modulators” (Janssen Pharmaceutica NV, priority 2013, dated 2017)

Target: P2X7 (Homo sapiens (Human), UniProt Q99572)
Test: P2X7 antagonism in human peripheral blood mononuclear cells (PBMCs), IL-1β release after LPS + Bz-ATP (ELISA)
Assay type: cell-based
Conditions: 0.5 mM Bz-ATP; for remaining activity at 10 µM: P2X7, Table 2, 10 μM compound, read-out: PBMC 10 μM (% control); for PBMC 10 μM (% control): Table 3 (additional runs), 10 μM compound
Method: Human blood was collected using a blood donor program. […] Cells were incubated for an additional 1.5 hours. […] Data are analyzed and graphed on Graphpad Prism 5. […] The IC50 for each compound is then uploaded into 3DX.

Sequence of P2X7 (Q99572 whole entry): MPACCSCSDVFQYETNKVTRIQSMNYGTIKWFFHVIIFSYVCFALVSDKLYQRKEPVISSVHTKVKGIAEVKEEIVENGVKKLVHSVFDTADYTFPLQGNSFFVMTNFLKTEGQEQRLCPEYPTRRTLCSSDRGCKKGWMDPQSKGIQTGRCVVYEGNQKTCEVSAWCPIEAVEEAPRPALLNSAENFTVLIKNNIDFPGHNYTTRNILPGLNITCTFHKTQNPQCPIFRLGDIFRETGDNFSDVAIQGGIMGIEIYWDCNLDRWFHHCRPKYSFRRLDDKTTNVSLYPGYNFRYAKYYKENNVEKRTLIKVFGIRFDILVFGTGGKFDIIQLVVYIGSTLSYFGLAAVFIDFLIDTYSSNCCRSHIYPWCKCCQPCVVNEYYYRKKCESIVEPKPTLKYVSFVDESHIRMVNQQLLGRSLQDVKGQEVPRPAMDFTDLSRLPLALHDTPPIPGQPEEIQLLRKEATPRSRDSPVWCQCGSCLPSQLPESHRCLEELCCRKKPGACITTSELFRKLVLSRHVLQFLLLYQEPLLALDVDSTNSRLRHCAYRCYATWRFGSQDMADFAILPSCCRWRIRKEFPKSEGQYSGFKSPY

| Structure (SMILES) | remaining activity at 10 µM [%] | PBMC 10 μM (% control) |
| --- | --- | --- |
| Cc1nc2c(c(-c3ccn[nH]3)n1)C[C@@H](C)N(C(=O)c1cccc(C(F)(F)F)c1Cl)C2 (single isomer, unassigned) [Example 58, (6R*)-7-{[2-Chloro-3-(trifluoromethyl)phenyl]carbonyl}-2,6-dimethyl-4-(1H-pyrazol-5-yl)-5,6,7,8-tetrahydropyrido[3,4-d]pyrimidine] | 5 | 5.0 |
| Cc1nc2c(c(-c3ccn[nH]3)n1)C[C@H](C)N(C(=O)c1cccc(C(F)(F)F)c1Cl)C2 (single isomer, unassigned) [Example 59, (6S*)-7-{[2-Chloro-3-(trifluoromethyl)phenyl]carbonyl}-2,6-dimethyl-4-(1H-pyrazol-5-yl)-5,6,7,8-tetrahydropyrido[3,4-d]pyrimidine] | 2.8 | 2.8 |
| Cc1nc2c(c(-c3ccn[nH]3)n1)C[C@H](C)N(C(=O)c1ccc(F)c(C(F)(F)F)c1Cl)C2 (single isomer, unassigned) [Example 65, (S*)-(2-chloro-4-fluoro-3-(trifluoromethyl)phenyl)(2,6-dimethyl-4-(1H-pyrazol-5-yl)-5,6-dihydropyrido[3,4-d]pyrimidin-7(8H)-yl)methanone] | 3.9 | 3.9 |
| Cc1nc2c(c(-c3ccn[nH]3)n1)C[C@@H](C)N(C(=O)c1ccc(F)c(C(F)(F)F)c1Cl)C2 (single isomer, unassigned) [Example 66, (R*)-(2-chloro-4-fluoro-3-(trifluoromethyl)phenyl)(2,6-dimethyl-4-(1H-pyrazol-5-yl)-5,6-dihydropyrido[3,4-d]pyrimidin-7(8H)-yl)methanone] | -6.1 | −6.1 |
| Cc1nc2c(c(-c3ccn[nH]3)n1)C[C@@H](C)N(C(=O)c1cccc(Cl)c1Cl)C2 (single isomer, unassigned) [Example 68, (R*)-(2,3-dichlorophenyl)(2,6-dimethyl-4-(1H-pyrazol-5-yl)-5,6-dihydropyrido[3,4-d]pyrimidin-7(8H)-yl)methanone] | -0.5 | −0.5 |
| Cc1nc2c(c(-c3ccn[nH]3)n1)C[C@H](C)N(C(=O)c1cccc(Cl)c1Cl)C2 (single isomer, unassigned) [Example 69, (S*)-(2,3-dichlorophenyl)(2,6-dimethyl-4-(1H-pyrazol-5-yl)-5,6-dihydropyrido[3,4-d]pyrimidin-7(8H)-yl)methanone] | -6.2 | −6.2 |
| Cc1nc2c(c(-c3ccn[nH]3)n1)C[C@@H](C)N(C(=O)c1cccc(C(F)(F)F)c1F)C2 (single isomer, unassigned) [Example 75, (R*)-(2,6-dimethyl-4-(1H-pyrazol-5-yl)-5,6-dihydropyrido[3,4-d]pyrimidin-7(8H)-yl)(2-fluoro-3-(trifluoromethyl)phenyl)methanone] | 2.4 | 2.4 |
| Cc1nc2c(c(-c3ccn[nH]3)n1)C[C@H](C)N(C(=O)c1cccc(C(F)(F)F)c1F)C2 (single isomer, unassigned) [Example 76, (S*)-(2,6-dimethyl-4-(1H-pyrazol-5-yl)-5,6-dihydropyrido[3,4-d]pyrimidin-7(8H)-yl)(2-fluoro-3-(trifluoromethyl)phenyl)methanone] | 14.3 |  |
| Cc1nc2c(c(-c3ccn[nH]3)n1)C[C@@H](C)N(C(=O)c1cccc(C(F)(F)F)c1C)C2 (single isomer, unassigned) [Example 78, (R*)-(2,6-dimethyl-4-(1H-pyrazol-5-yl)-5,6-dihydropyrido[3,4-d]pyrimidin-7(8H)-yl)(2-methyl-3-(trifluoromethyl)phenyl)methanone] | 1.4 | 1.4 |
| Cc1nc2c(c(-c3ccn[nH]3)n1)C[C@H](C)N(C(=O)c1cccc(C(F)(F)F)c1C)C2 (single isomer, unassigned) [Example 79, (S*)-(2,6-dimethyl-4-(1H-pyrazol-5-yl)-5,6-dihydropyrido[3,4-d]pyrimidin-7(8H)-yl)(2-methyl-3-(trifluoromethyl)phenyl)methanone] | 2.6 | 2.6 |
| Cc1nc2c(c(-c3ccn[nH]3)n1)C[C@@H](C)N(C(=O)c1ccc(F)c(Cl)c1Cl)C2 (single isomer, unassigned) [Example 81, (R*)-(2,3-dichloro-4-fluorophenyl)(2,6-dimethyl-4-(1H-pyrazol-5-yl)-5,6-dihydropyrido[3,4-d]pyrimidin-7(8H)-yl)methanone] | 21 | 21.0 |
| Cc1nc2c(c(-c3ccn[nH]3)n1)C[C@H](C)N(C(=O)c1ccc(F)c(Cl)c1Cl)C2 (single isomer, unassigned) [Example 82, (S*)-(2,3-dichloro-4-fluorophenyl)(2,6-dimethyl-4-(1H-pyrazol-5-yl)-5,6-dihydropyrido[3,4-d]pyrimidin-7(8H)-yl)methanone] | -1 | −1.0 |
| Cc1nc2c(c(-c3ccn[nH]3)n1)C[C@@H](C)N(C(=O)c1ccc(Cl)cc1Cl)C2 (single isomer, unassigned) [Example 84, (R*)-(2,4-dichlorophenyl)(2,6-dimethyl-4-(1H-pyrazol-5-yl)-5,6-dihydropyrido[3,4-d]pyrimidin-7(8H)-yl)methanone] | 7.5 | 7.5 |
| Cc1nc2c(c(-c3ccn[nH]3)n1)C[C@H](C)N(C(=O)c1ccc(Cl)cc1Cl)C2 (single isomer, unassigned) [Example 85, (S*)-(2,4-dichlorophenyl)(2,6-dimethyl-4-(1H-pyrazol-5-yl)-5,6-dihydropyrido[3,4-d]pyrimidin-7(8H)-yl)methanone] | -0.8 | −0.8 |
| Cc1nc2c(c(-c3ccn[nH]3)n1)C[C@@H](C)N(C(=O)c1ccc(Cl)cc1F)C2 (single isomer, unassigned) [Example 88, (R*)-(4-chloro-2-fluorophenyl)(2,6-dimethyl-4-(1H-pyrazol-5-yl)-5,6-dihydropyrido[3,4-d]pyrimidin-7(8H)-yl)methanone] | 49.4 |  |
| Cc1nc2c(c(-c3ccn[nH]3)n1)C[C@@H](C)N(C(=O)c1ccc(F)cc1Cl)C2 (single isomer, unassigned) [Example 91, (R*)-(2-chloro-4-fluorophenyl)(2,6-dimethyl-4-(1H-pyrazol-5-yl)-5,6-dihydropyrido[3,4-d]pyrimidin-7(8H)-yl)methanone] | -8.8 | −8.8 |
| Cc1nc2c(c(-c3ccn[nH]3)n1)C[C@H](C)N(C(=O)c1ccc(F)cc1Cl)C2 (single isomer, unassigned) [Example 92, (S*)-(2-chloro-4-fluorophenyl)(2,6-dimethyl-4-(1H-pyrazol-5-yl)-5,6-dihydropyrido[3,4-d]pyrimidin-7(8H)-yl)methanone] | 9.4 | 9.4 |
| Cc1nc2c(c(-c3ccn[nH]3)n1)C[C@@H](C)N(C(=O)c1ccc(F)cc1F)C2 (single isomer, unassigned) [Example 94, (R*)-(2,4-difluorophenyl)(2,6-dimethyl-4-(1H-pyrazol-5-yl)-5,6-dihydropyrido[3,4-d]pyrimidin-7(8H)-yl)methanone] | 71.8 |  |
